Results reported in patent US8546421B1, “Oncogenic-RAS-signal dependent lethal compounds” (The Trustees of Columbia University in the City of New York, priority 2007, dated 2013).
Values after ≈ are worked out from the molar mass of the structure shown.

Tests used:
HS 578T = assay: NCI60 anti-cancer screening; conditions: for GI 100%: HS 578T, Breast Cancer; for GI50 / CC50: Homo sapiens, Hs-578T; for CC50: read-out: LC 50%
HL-60(TB) = conditions: Leukemia
[1] = test system: BJ cell system (BJ-TERT, BJ-TERT/LT/ST, BJ-TERT/LT/ST/RAS^V12, DRD cells); assay: Alamar blue potency and selectivity in the engineered BJ cell system; conditions: oncogenic-RAS-expressing vs non-oncogenic-RAS-expressing BJ cells; alamar blue
Experimental: Empty “step-daughter plates” were filled with 50 μL DMEM, except for columns 3 and 13, where 100 μL of hit compound solution were cherry-picked from daughter plates. After compound transfer, 2-fold dilution series across columns 3 through 12 and columns 13 through 22 was made by transferring 50 μL of compound solution to the next column successively (10-point dilution series), with extensive mixing. Hit-picking and 2-fold dilution series were carried out using Biomek FX Span-8 module (Beckman Coulter). Assay plates were prepared by seeding 1,000 BJ-TERT, BJ-TERT/LT/ST, and BJ-TERT/LT/ST/RAS^V12 cells per well in 36 μL growth medium. Cells in assay plates were treated with compounds from step-daughter plates by transferring 4 μL. The final concentration of the compound was 5.33 μg/mL to 0.01 μg/mL in this 10-point, 2-fold dilution series. Assay plates were returned to the culture incubator and maintained for 48 hours before adding alamar blue.
Fresh daughter plates were made from the mother plate and cherry-picked hits from the first round, 2-fold dilution series experiment as described above. Assay plates were prepared by seeding 1,000 BJ-TERT, BJ-TERT/LT/ST, BJ-TERT/LT/ST/RAS^V12 or BJ-TERT/p53DD/CDK4/cyclinD1/ST/RAS^V12 (DRD) cells per well in 32 μL growth media. Cells in the assay plates were treated with compounds from the step-daughter plate by transferring 8 μL solution. The final concentration of the compound was 10.66 μg/mL to 0.02 μg/mL in a 10-point, 2-fold dilution series manner. Assay plates were returned to the culture incubator and maintained for 48 hours before adding alamar blue.
Cells were seeded in 384-well assay plates, treated with candidate compounds, and incubated in the culture incubator in 40 μL culture volume per well. […] Plates were incubated further for 16 hours to allow reduction of alamar blue, which results in the generation of red fluorescence. The fluorescence intensity was determined using a Victor 3 plate reader (Perkin Elmer) with a 535 nm excitation filter and a 590 nm emission filter.
In the subsequent two-fold dilution series testing, selectivity was calculated as the ratio of GI50 values in BJ-TERT/LT/ST and BJ-TERT/LT/ST/RAS^V12 cells. […] DRD cells are also derived from BJ primary cells and the effects of mutations in both lines should be similar.

HT29 = assay: NCI60 anti-cancer screening; conditions: for GI 100%: HT29, Colon Cancer; for GI50 / CC50: Homo sapiens; for GI50: HT-29; for CC50: HT-29, read-out: LC 50%
[2] = test system: BJ-derived cell lines (BJ-TERT/LT/ST/RAS^V12 cells); assay: Vi-Cell analysis (trypan blue exclusion); assay type: cell-based, human; conditions: 24 hours
Experimental: 200,000 cells were seeded in 6-well plates and treated with the indicated amount of 2-fold dilution series concentration of a candidate compound in 2 mL BJ growth medium. After 24 hours, cells were released with trypsin/EDTA, harvested in 1.1 mL growth medium, and transferred to a Vi-Cell (Beckman Coulter) disposable cup. After, trypan blue staining, 100 images of sample were taken and analysis of the images was carried out automatically by a Vi-Cell cell viability analyzer (Beckman Coulter).

M14 = assay: NCI60 anti-cancer screening; conditions: for GI50 / CC50: Homo sapiens; for GI50 / GI 100%: M14; for CC50: M14, read-out: LC 50%; for GI 100%: Melanoma
OVCAR-3 = conditions: Ovarian Cancer
SF-539 = assay: NCI60 anti-cancer screening; conditions: for GI50 / CC50: Homo sapiens; for GI50 / GI 100%: SF-539; for CC50: SF-539, read-out: LC 50%; for GI 100%: CNS Cancer
PC-3 = assay: NCI60 anti-cancer screening; conditions: for GI50 / CC50: Homo sapiens; for GI50 / GI 100%: PC-3; for CC50: PC-3, read-out: LC 50%; for GI 100%: Prostate Cancer
RXF393 = assay: NCI60 anti-cancer screening; conditions: for GI50 / CC50: Homo sapiens; for GI50: RXF 393; for CC50: RXF 393, read-out: LC 50%; for GI 100%: RXF393, Renal Cancer
HCT-116 = assay: NCI60 anti-cancer screening; conditions: for GI 100% / GI50: HCT-116; for GI 100%: Colon Cancer; for GI50 / CC50: Homo sapiens; for CC50: HCT-116, read-out: LC 50%
Calu-1 = assay: Alamar Blue assay, additional cell lines; assay type: cell-based, human; conditions: for Maximum Inhibition % / GI50: Calu-1, Non-small cell lung carcinoma, Alamar Blue
Excerpt: (§1) The results of this additional testing are summarized in Tables 7-10 (no additional cell lines were identified as sensitive for Compound 3). […] The tumor type, cell line, maximum percentage inhibition, the concentration of compound required to inhibit cell growth by 50%, and RAS mutation (if any) are also summarized.

PaCa-2 = assay: Alamar Blue assay, additional cell lines; assay type: cell-based, human; conditions: Pancreatic Cancer; for GI50: Homo sapiens
Excerpt: as §1

MDA-MB-435 = assay: NCI60 anti-cancer screening; conditions: for GI50 / CC50: Homo sapiens; for GI50 / GI 100%: MDA-MB-435; for CC50: MDA-MB-435, read-out: LC 50%; for GI 100%: Breast Cancer
NCI-H522 = assay: NCI60 anti-cancer screening; conditions: for GI50 / CC50: Homo sapiens; for GI50 / GI 100%: NCI-H522; for CC50: NCI-H522, read-out: LC 50%; for GI 100%: Non-small cell lung carcinoma
UACC-62 = assay: NCI60 anti-cancer screening; conditions: for GI50 / CC50: Homo sapiens; for GI50 / GI 100%: UACC-62; for CC50: UACC-62, read-out: LC 50%; for GI 100%: Melanoma
SK-MEL-2 = assay: NCI60 anti-cancer screening; conditions: for GI50 / CC50: Homo sapiens; for GI50 / GI 100%: SK-MEL-2; for CC50: SK-MEL-2, read-out: LC 50%; for GI 100%: Melanoma
RPMI-8226 = assay: NCI60 anti-cancer screening; conditions: for GI50 / CC50: Homo sapiens; for GI50 / GI 100%: RPMI-8226; for CC50: RPMI-8226, read-out: LC 50%; for GI 100%: Leukemia
SW-620 = assay: NCI60 anti-cancer screening; conditions: for GI50 / CC50: Homo sapiens; for GI50 / GI 100%: SW-620; for CC50: SW-620, read-out: LC 50%; for GI 100%: Colon Cancer
MCF-7 = assay: NCI60 anti-cancer screening; conditions: for GI50 / CC50: Homo sapiens; for GI50: MCF7; for CC50: MCF7, read-out: LC 50%; for GI 100%: MCF-7, Breast Cancer

SMILES: COCCOC(=O)C1=C(C)NC2=C(C(=O)CC(c3ccc(Cl)cc3)C2)C1c1ccccc1F (centres unmarked) [Compound 3]
- GI 100% (HS 578T): >10 µM
- GI50 (HS 578T): 9.31 µM
- CC50 (HS 578T): > 10 µM
- GI 100% (HL-60(TB)): >10 µM
- degree of selectivity against HRAS^G12V [1]: 4-8 fold
- GI 100% (HT29): >10 µM
- GI50 (HT29): 9.82 µM
- CC50 (HT29): > 10 µM

SMILES: CCc1c(O)c2c(c(O)c1O[C@H]1O[C@@H](COC(C)=O)[C@H](OC(C)=O)[C@@H](CC(C)=O)[C@@H]1OC(C)=O)C(=O)C(O[C@@H]1O[C@H](COC(C)=O)[C@@H](OC(C)=O)[C@H](OC(C)=O)[C@H]1OC(C)=O)=C(O[C@@H]1O[C@H](COC(C)=O)[C@@H](OC(C)=O)[C@H](OC(C)=O)[C@H]1OC(C)=O)C2=O [Compound 6]
- potency and selectivity by trypan blue exclusion (in words) [2]: confirmed the potency and selectivity
- GI50 (M14): 2.07 µM
- CC50 (M14): 9.28 µM
- GI 100% (M14): 4.38 µM
- GI 100% (OVCAR-3): >10 µM
- GI50 (SF-539): 2.32 µM
- CC50 (SF-539): 9.59 µM
- GI 100% (SF-539): 4.71 µM
- GI50 (PC-3): 5.07 µM
- CC50 (PC-3): > 10 µM
- GI 100% (PC-3): >10 µM
- GI50 (RXF393): 0.652 µM
- CC50 (RXF393): 6.6 µM
- GI 100% (RXF393): 2.41 µM
- GI 100% (HCT-116): 1.32 µM
- GI50 (HCT-116): 0.376 µM
- CC50 (HCT-116): 3.64 µM
- Maximum Inhibition % (Calu-1): 100%
- GI50 (Calu-1; Homo sapiens): 2.5 µM
- GI50 (PaCa-2): 0.6 µM
- Maximum Inhibition % (PaCa-2): 100%
- GI50 (MDA-MB-435): 2.21 µM
- CC50 (MDA-MB-435): 9.07 µM
- GI 100% (MDA-MB-435): 4.38 µM
- GI50 (NCI-H522): 0.49 µM
- CC50 (NCI-H522): 5.12 µM
- GI 100% (NCI-H522): 1.79 µM
- GI 100% (HS 578T): >10 µM
- GI50 (HS 578T): 3.31 µM
- CC50 (HS 578T): > 10 µM
- GI50 (UACC-62): 9.78 µM
- CC50 (UACC-62): > 10 µM
- GI 100% (UACC-62): >10 µM
- GI50 (SK-MEL-2): 2.32 µM
- CC50 (SK-MEL-2): > 10 µM
- GI 100% (SK-MEL-2): 6.87 µM
- GI50 (RPMI-8226): 2.37 µM
- CC50 (RPMI-8226): > 10 µM
- GI 100% (RPMI-8226): 6.77 µM
- GI 100% (HL-60(TB)): 2.38 µM
- GI50 (SW-620): 0.271 µM
- CC50 (SW-620): 3.9 µM
- GI 100% (SW-620): 1.03 µM
- degree of selectivity against HRAS^G12V [1]: 4-8 fold
- GI 100% (HT29): >10 µM
- GI50 (HT29): 3.32 µM
- CC50 (HT29): > 10 µM
- GI50 (MCF-7): 1.55 µM
- CC50 (MCF-7): 9.18 µM
- GI 100% (MCF-7): 3.78 µM

SMILES: COC(=O)c1ccc(C2c3[nH]c4ccccc4c3CC(C(=O)OC)N2C(=O)CCl)cc1 (centres unmarked) [Compound 27]
- potency and selectivity by trypan blue exclusion (in words) [2]: confirmed Compound 27 cell growth inhibition activity and selectivity
- GI50 (M14): 1.07 µM
- CC50 (M14): 4.75 µM
- GI 100% (M14): 2.25 µM
- GI 100% (OVCAR-3): 1.57 µM
- GI50 (SF-539): 0.118 µM
- CC50 (SF-539): 0.492 µM
- GI 100% (SF-539): 0.241 µM
- GI50 (PC-3): 0.231 µM
- CC50 (PC-3): 3.29 µM
- GI 100% (PC-3): 1.08 µM
- GI50 (RXF393): 1.3 µM
- CC50 (RXF393): 6.93 µM
- GI 100% (RXF393): 3 µM
- GI 100% (HCT-116): 1.48 µM
- GI50 (HCT-116): 0.364 µM
- CC50 (HCT-116): 3.84 µM
- Maximum Inhibition % (Calu-1): 100%
- IC90 (in words) (Calu-1; Calu-1 cells, alamar blue): single-digit nanomolar range
- GI50 (Calu-1; Homo sapiens): 0.001 µM
- IC50 (Calu-1; Homo sapiens, Calu-1 cells, treated for 24 hour, alamar blue): 0.02 µg/mL (≈ 0.0454 µM)
- GI50 (PaCa-2): 0.125 µM
- Maximum Inhibition % (PaCa-2): 100%
- GI50 (MDA-MB-435): 1.71 µM
- CC50 (MDA-MB-435): 8.19 µM
- GI 100% (MDA-MB-435): 3.74 µM
- GI50 (NCI-H522): 1.63 µM
- CC50 (NCI-H522): 8.58 µM
- GI 100% (NCI-H522): 3.74 µM
- GI 100% (HS 578T): 2.85 µM
- GI50 (HS 578T): 0.403 µM
- CC50 (HS 578T): > 10 µM
- GI50 (UACC-62): 1.21 µM
- CC50 (UACC-62): 5.04 µM
- GI 100% (UACC-62): 2.47 µM
- GI50 (SK-MEL-2): 1.74 µM
- CC50 (SK-MEL-2): 9.82 µM
- GI 100% (SK-MEL-2): 4.13 µM
- GI50 (RPMI-8226): 0.0431 µM
- CC50 (RPMI-8226): 6.99 µM
- GI 100% (RPMI-8226): 2.22 µM
- GI 100% (HL-60(TB)): 0.537 µM
- GI50 (SW-620): 0.681 µM
- CC50 (SW-620): 5.25 µM
- GI 100% (SW-620): 2.09 µM
- degree of selectivity against HRAS^G12V [1]: four-fold
- GI 100% (HT29): 1.46 µM
- GI50 (HT29): 0.415 µM
- CC50 (HT29): 4.06 µM
- GI50 (MCF-7): 0.782 µM
- CC50 (MCF-7): > 10 µM
- GI 100% (MCF-7): 3.98 µM
